This experiment has as its system BDF1 mice, Adenocarcinoma 755 s.c., tumor weight T/C. The experiment can be described thus: NCI In Vivo Anticancer Drug Screen. Data for tumor model Adenocarcinoma 755 (subcutaneous) in B6D2F1 (BDF1) mice. The note with it: endpoint: mean tumor weight, higher = larger tumour. The procedure, abridged: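 Values express treated (T) relative to vehicle-dosed control (C) animals, based on survival or tumour size measured after compound treatment of mice bearing a transplanted tumour.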

[1] abbreviates: dose: 25.0 mg/kg/injection, schedule: Q01DX011 (ip), vehicle: carboxymethylcellulose (CMC).
Where [2] appears, read: dose: 50.0 mg/kg/injection, schedule: Q01DX011 (ip), vehicle: carboxymethylcellulose (CMC).
The mark [3] stands for this setting: dose: 100.0 mg/kg/injection, schedule: Q01DX011 (ip), vehicle: carboxymethylcellulose (CMC).
Setting [4] is: dose: 100.0 mg/kg/injection, schedule: Q01DX011 (ip), vehicle: saline.

Several values for one entry are separate records, joined by “and”; a condition that tells them apart may be missing. Identical values can stand only once.

With `Nc1c(Br)cc2c(c1Br)Cc1cc([N+](=O)[O-])ccc1-2`, the T/C (in general, the result in the treated group divided by that in the control group, in per cent) is 85 % of control (dose: 1.5 mg/kg/injection, schedule: Q01DX011 (ip), vehicle: carboxymethylcellulose (CMC)); 63 % of control (dose: 3.0 mg/kg/injection, schedule: Q01DX011 (ip), vehicle: carboxymethylcellulose (CMC)); 43 % of control (dose: 6.0 mg/kg/injection, schedule: Q01DX011 (ip), vehicle: carboxymethylcellulose (CMC)); 94 % of control (dose: 6.0 mg/kg/injection, schedule: Q01DX011 (ip), vehicle: other); 109 % of control (dose: 6.25 mg/kg/injection, schedule: Q01DX011 (ip), vehicle: saline); 22 % of control (dose: 12.0 mg/kg/injection, schedule: Q01DX011 (ip), vehicle: carboxymethylcellulose (CMC)). The T/C reads like this: (dose: 12.5 mg/kg/injection, schedule: Q01DX011 (ip), vehicle: saline) 69 % of control; under setting [1], 7 % of control; (dose: 25.0 mg/kg/injection, schedule: Q01DX011 (ip), vehicle: saline) 82 % of control; (dose: 27.5 mg/kg/injection, schedule: Q01DX011 (ip), vehicle: saline) 46 % of control; under setting [2], 12 % of control; (dose: 50.0 mg/kg/injection, schedule: Q01DX011 (ip), vehicle: saline) 57 % of control. Besides, the T/C by setting is: (dose: 50.0 mg/kg/injection, schedule: Q01DX011 (oral), vehicle: saline) 90 % of control; (dose: 55.0 mg/kg/injection, schedule: Q01DX011 (ip), vehicle: saline) 29 % of control; under setting [3], 19 % of control; under setting [4], 63 % of control; (dose: 100.0 mg/kg/injection, schedule: Q01DX011 (oral), vehicle: saline) 72 % of control; (dose: 110.0 mg/kg/injection, schedule: Q01DX011 (ip), vehicle: other) 17 % of control and 30 % of control. The T/C (dose: 110.0 mg/kg/injection, schedule: Q01DX011 (ip), vehicle: saline) is 21 % of control and 38 % of control; the T/C (dose: 200.0 mg/kg/injection, schedule: Q01DX011 (ip), vehicle: carboxymethylcellulose (CMC)) is 8 % of control; the T/C (dose: 200.0 mg/kg/injection, schedule: Q01DX011 (ip), vehicle: saline) was 46 % of control; the T/C (dose: 200.0 mg/kg/injection, schedule: Q01DX011 (oral), vehicle: saline) was 91 % of control; the T/C (dose: 225.0 mg/kg/injection, schedule: Q01DX011 (ip), vehicle: other) was 17 % of control and 32 % of control; the T/C (dose: 400.0 mg/kg/injection, schedule: Q01DX011 (oral), vehicle: saline) is 117 % of control. Further, the T/C runs as follows: (dose: 450.0 mg/kg/injection, schedule: Q01DX011 (ip), vehicle: other) 6 % of control; (dose: 800.0 mg/kg/injection, schedule: Q01DX011 (oral), vehicle: saline) 66 % of control; (dose: 900.0 mg/kg/injection, schedule: Q01DX011 (ip), vehicle: other) 15 % of control.

As for `CNc1ncnc2c1cnn2C1CCCO1` (stereo not given), the T/C reads like this: (dose: 2.3 mg/kg/injection, schedule: Q01DX011 (ip), vehicle: methylcellulose (MC)) 71 % of control; (dose: 4.6 mg/kg/injection, schedule: Q01DX011 (ip), vehicle: methylcellulose (MC)) 33 % of control; (dose: 9.3 mg/kg/injection, schedule: Q01DX011 (ip), vehicle: methylcellulose (MC)) 14 % of control.

As for `COC(C(=O)C(O)C(C)O)C1Cc2cc3cc(OC4CC(OC(C)=O)C(OC5CC(O)C(OC)C(C)O5)C(C)O4)cc(O)c3c(O)c2C(=O)C1OC1CC(OC2CC(OC3CC(C)(O)C(OC(=O)C(C)C)C(C)O3)C(O)C(C)O2)C(O)C(C)O1` (stereo not given), the T/C was 93 % of control (dose: 0.02 mg/kg/injection, schedule: Q01DX011 (ip), vehicle: carboxymethylcellulose (CMC)); 93 % of control (dose: 0.04 mg/kg/injection, schedule: Q01DX011 (ip), vehicle: carboxymethylcellulose (CMC)); 52 % of control (dose: 0.08 mg/kg/injection, schedule: Q01DX011 (ip), vehicle: carboxymethylcellulose (CMC)); 114 % of control (dose: 0.15 mg/kg/injection, schedule: Q01DX011 (ip), vehicle: saline); 14 % of control and 39 % of control (dose: 0.16 mg/kg/injection, schedule: Q01DX011 (ip), vehicle: carboxymethylcellulose (CMC)); 66 % of control (dose: 0.33 mg/kg/injection, schedule: Q01DX011 (ip), vehicle: saline). The T/C (dose: 0.66 mg/kg/injection, schedule: Q01DX011 (ip), vehicle: saline) was 54 % of control; the T/C (dose: 1.25 mg/kg/injection, schedule: Q01DX011 (ip), vehicle: saline) was 8 % of control and 11 % of control; the T/C (dose: 2.5 mg/kg/injection, schedule: Q01DX011 (ip), vehicle: saline) is 2 % of control and 3 % of control.

`CCCn1cnc2c(SCc3ccccn3)nc(N)nc21`: the T/C is, setting by setting: (dose: 3.6 mg/kg/injection, schedule: Q01DX011 (ip), vehicle: methylcellulose (MC)) 12 % of control; (dose: 7.25 mg/kg/injection, schedule: Q01DX011 (ip), vehicle: methylcellulose (MC)) 4 % of control; (dose: 15.5 mg/kg/injection, schedule: Q01DX011 (ip), vehicle: methylcellulose (MC)) 1 % of control.

Regarding `S=P(Oc1ccccc1)(N1CC1)N1CC1`, the T/C was 22 % of control and 42 % of control and 44 % of control (dose: 55.0 mg/kg/injection, schedule: Q01DX011 (ip), vehicle: methylcellulose (MC)); 20 % of control (dose: 220.0 mg/kg/injection, schedule: Q01DX011 (ip), vehicle: methylcellulose (MC)).

As for `S=c1nc[nH]c2c1ncn2C1CCCCO1` (stereo not given), the T/C runs as follows: (dose: 5.0 mg/kg/injection, schedule: Q01DX011 (ip), vehicle: carboxymethylcellulose (CMC)) 29 % of control; (dose: 10.0 mg/kg/injection, schedule: Q01DX011 (ip), vehicle: carboxymethylcellulose (CMC)) 16 % of control.

For `S=c1[nH]c(=S)c2[nH]cnc2[nH]1`, the T/C by setting is: under setting [1], 84 % of control; under setting [2], 58 % of control; under setting [3], 31 % of control.

With `CCc1nc(N)nc(N)c1-c1ccc(Cl)c(Cl)c1`, the T/C (dose: 0.5 mg/kg/injection, schedule: Q01DX011 (ip), vehicle: methylcellulose (MC)) was 51 % of control; the T/C (dose: 1.0 mg/kg/injection, schedule: Q01DX011 (ip), vehicle: methylcellulose (MC)) is 62 % of control and 71 % of control; the T/C (dose: 2.0 mg/kg/injection, schedule: Q01DX011 (ip), vehicle: methylcellulose (MC)) is 52 % of control.

Consider `O/N=C1\CCCC\C1=N/O`, for which the T/C by setting is: (dose: 200.0 mg/kg/injection, schedule: Q01DX011 (ip), vehicle: other) 55 % of control; (dose: 300.0 mg/kg/injection, schedule: Q01DX011 (ip), vehicle: other) 4 % of control.

Regarding `Ic1ncnc2c1ncn2C1CCCS1` (stereo not given), the T/C (dose: 75.0 mg/kg/injection, schedule: Q01DX011 (ip), vehicle: methylcellulose (MC)) is 150 % of control and the T/C (dose: 225.0 mg/kg/injection, schedule: Q01DX011 (ip), vehicle: methylcellulose (MC)) is 95 % of control.

As for `Nc1nc(I)c2[nH]cnc2n1`, the T/C was 52 % of control (dose: 15.0 mg/kg/injection, schedule: Q01DX011 (ip), vehicle: methylcellulose (MC)); 109 % of control (dose: 30.0 mg/kg/injection, schedule: Q01DX011 (ip), vehicle: methylcellulose (MC)); 41 % of control (dose: 60.0 mg/kg/injection, schedule: Q01DX011 (ip), vehicle: methylcellulose (MC)); 44 % of control (dose: 120.0 mg/kg/injection, schedule: Q01DX011 (ip), vehicle: methylcellulose (MC)).

With `CN(C)N=Nc1ccc(C(=O)NC(CCC(=O)NN)C(=O)NN)cc1` (stereo not given), the T/C is 92 % of control under setting [4] and 81 % of control (dose: 150.0 mg/kg/injection, schedule: Q01DX011 (ip), vehicle: saline).

As for `CC(=O)OCC(=O)C1(O)CCC2C3CCC4=CC(=O)CCC4(C)C34OC4CC21C` (stereo not given), the T/C is 87 % of control (dose: 25.0 mg/kg/injection, schedule: Q01DX011 (sc), vehicle: steriod suspending solution); 44 % of control (dose: 200.0 mg/kg/injection, schedule: Q01DX011 (sc), vehicle: steriod suspending solution); 17 % of control (dose: 450.0 mg/kg/injection, schedule: Q01DX011 (sc), vehicle: steriod suspending solution).

The record behind these values is PubChem BioAssay AID180 (DTP/NCI, 2004).
